According to the NIST ThermoML archive (doi:10.1016/j.jct.2006.07.022):

Assay: xn = mol fraction of the nth substance listed
Conditions: 101 kPa, Liquid

CN(C)C=O [dimethylformamide] + Cc1ccccc1
Conditions	mass density [kg/m3]
293.15 K, x2 = 0	948.58
293.15 K, x2 = 0.0587	943.21
293.15 K, x2 = 0.0924	940.15
293.15 K, x2 = 0.1596	934.15
293.15 K, x2 = 0.2106	929.65
293.15 K, x2 = 0.2706	924.43
293.15 K, x2 = 0.3202	920.16
293.15 K, x2 = 0.3823	914.89
293.15 K, x2 = 0.4504	909.2
293.15 K, x2 = 0.5171	903.73
293.15 K, x2 = 0.5636	899.97
293.15 K, x2 = 0.7212	887.54
293.15 K, x2 = 0.7647	884.19
293.15 K, x2 = 0.8114	880.65
293.15 K, x2 = 0.8715	876.16
293.15 K, x2 = 0.9412	871.04
303.15 K, x2 = 0	939.46
303.15 K, x2 = 0.0451	935.32
303.15 K, x2 = 0.1012	930.23
303.15 K, x2 = 0.1674	924.31
303.15 K, x2 = 0.2151	920.11
303.15 K, x2 = 0.2855	913.98
303.15 K, x2 = 0.3484	908.59
303.15 K, x2 = 0.4188	902.65
303.15 K, x2 = 0.4876	896.96
303.15 K, x2 = 0.5508	891.8
303.15 K, x2 = 0.6134	886.77
303.15 K, x2 = 0.6745	881.95
303.15 K, x2 = 0.7512	876
303.15 K, x2 = 0.8121	871.36
303.15 K, x2 = 0.8614	867.66
303.15 K, x2 = 0.9318	862.47
313.15 K, x2 = 0	930.12
313.15 K, x2 = 0.051	925.45
313.15 K, x2 = 0.1112	920.02
313.15 K, x2 = 0.1984	912.27
313.15 K, x2 = 0.2511	907.67
313.15 K, x2 = 0.3147	902.18
313.15 K, x2 = 0.3784	896.76
313.15 K, x2 = 0.4322	892.26
313.15 K, x2 = 0.5053	886.23
313.15 K, x2 = 0.5721	880.8
313.15 K, x2 = 0.6427	875.17
313.15 K, x2 = 0.7077	870.09
313.15 K, x2 = 0.7812	864.43
313.15 K, x2 = 0.8419	859.84
313.15 K, x2 = 0.8932	856.01
313.15 K, x2 = 0.9588	851.2
323.15 K, x2 = 0	920.55
323.15 K, x2 = 0.044	916.54
323.15 K, x2 = 0.1062	910.94
323.15 K, x2 = 0.1721	905.1
323.15 K, x2 = 0.2314	899.91
323.15 K, x2 = 0.2985	894.12
323.15 K, x2 = 0.3647	888.5
323.15 K, x2 = 0.4215	883.74
323.15 K, x2 = 0.4874	878.3
323.15 K, x2 = 0.5484	873.34
323.15 K, x2 = 0.6014	869.09
323.15 K, x2 = 0.6647	864.08
323.15 K, x2 = 0.7314	858.9
323.15 K, x2 = 0.7951	854.03
323.15 K, x2 = 0.8654	848.74
323.15 K, x2 = 0.9321	843.83
333.15 K, x2 = 0	910.75
333.15 K, x2 = 0.0512	906.14
333.15 K, x2 = 0.112	900.72
333.15 K, x2 = 0.1784	894.89
333.15 K, x2 = 0.2351	889.98
333.15 K, x2 = 0.2985	884.55
333.15 K, x2 = 0.3514	880.08
333.15 K, x2 = 0.4122	875
333.15 K, x2 = 0.4841	869.09
333.15 K, x2 = 0.5451	864.14
333.15 K, x2 = 0.6015	859.64
333.15 K, x2 = 0.6641	854.71
333.15 K, x2 = 0.7321	849.44
333.15 K, x2 = 0.7951	844.64
333.15 K, x2 = 0.8621	839.62
333.15 K, x2 = 0.9245	835.02
343.15 K, x2 = 0	900.73
343.15 K, x2 = 0.0632	895.11
343.15 K, x2 = 0.1201	890.11
343.15 K, x2 = 0.1854	884.45
343.15 K, x2 = 0.2554	878.46
343.15 K, x2 = 0.3114	873.73
343.15 K, x2 = 0.3784	868.14
343.15 K, x2 = 0.4552	861.82
343.15 K, x2 = 0.5114	857.28
343.15 K, x2 = 0.5662	852.9
343.15 K, x2 = 0.6212	848.55
343.15 K, x2 = 0.6812	843.88
343.15 K, x2 = 0.7499	838.61
343.15 K, x2 = 0.8021	834.67
343.15 K, x2 = 0.8654	829.95
343.15 K, x2 = 0.9421	824.34
353.15 K, x2 = 0	890.48
353.15 K, x2 = 0.0451	886.53
353.15 K, x2 = 0.1023	881.55
353.15 K, x2 = 0.1654	876.13
353.15 K, x2 = 0.2215	871.36
353.15 K, x2 = 0.2865	865.91
353.15 K, x2 = 0.3412	861.36
353.15 K, x2 = 0.4012	856.44
353.15 K, x2 = 0.4687	850.98
353.15 K, x2 = 0.5214	846.76
353.15 K, x2 = 0.5841	841.82
353.15 K, x2 = 0.6474	836.89
353.15 K, x2 = 0.7142	831.77
353.15 K, x2 = 0.7784	826.93
353.15 K, x2 = 0.8451	821.96
353.15 K, x2 = 0.9012	817.86

CN(C)C=O [dimethylformamide] + c1ccccc1
Conditions	mass density [kg/m3]
293.15 K, x2 = 0	948.58
293.15 K, x2 = 0.0785	943.13
293.15 K, x2 = 0.1347	939.28
293.15 K, x2 = 0.2036	934.59
293.15 K, x2 = 0.2699	930.11
293.15 K, x2 = 0.3352	925.71
293.15 K, x2 = 0.4034	921.13
293.15 K, x2 = 0.4874	915.49
293.15 K, x2 = 0.5432	911.72
293.15 K, x2 = 0.6044	907.55
293.15 K, x2 = 0.6705	903
293.15 K, x2 = 0.7413	898.06
293.15 K, x2 = 0.8056	893.49
293.15 K, x2 = 0.871	888.73
293.15 K, x2 = 0.9214	884.99
293.15 K, x2 = 0.9785	880.66
303.15 K, x2 = 0	939.46
303.15 K, x2 = 0.0689	934.59
303.15 K, x2 = 0.1354	929.93
303.15 K, x2 = 0.2037	925.19
303.15 K, x2 = 0.2701	920.6
303.15 K, x2 = 0.3387	915.87
303.15 K, x2 = 0.407	911.17
303.15 K, x2 = 0.4735	906.6
303.15 K, x2 = 0.5403	901.98
303.15 K, x2 = 0.6054	897.43
303.15 K, x2 = 0.6791	892.23
303.15 K, x2 = 0.7441	887.56
303.15 K, x2 = 0.81	882.75
303.15 K, x2 = 0.8741	877.97
303.15 K, x2 = 0.9245	874.12
303.15 K, x2 = 0.9784	869.92
313.15 K, x2 = 0	930.12
313.15 K, x2 = 0.0655	925.37
313.15 K, x2 = 0.1357	920.35
313.15 K, x2 = 0.2019	915.66
313.15 K, x2 = 0.2684	910.98
313.15 K, x2 = 0.336	906.21
313.15 K, x2 = 0.4063	901.26
313.15 K, x2 = 0.4726	896.57
313.15 K, x2 = 0.5367	892.03
313.15 K, x2 = 0.6038	887.24
313.15 K, x2 = 0.6792	881.8
313.15 K, x2 = 0.738	877.51
313.15 K, x2 = 0.8119	872.03
313.15 K, x2 = 0.873	867.4
313.15 K, x2 = 0.9314	862.88
313.15 K, x2 = 0.98	859.02
323.15 K, x2 = 0	920.55
323.15 K, x2 = 0.0785	914.76
323.15 K, x2 = 0.1359	910.58
323.15 K, x2 = 0.2021	905.79
323.15 K, x2 = 0.2687	901.01
323.15 K, x2 = 0.3364	896.14
323.15 K, x2 = 0.4066	891.09
323.15 K, x2 = 0.4735	886.28
323.15 K, x2 = 0.5415	881.37
323.15 K, x2 = 0.6092	876.44
323.15 K, x2 = 0.6736	871.72
323.15 K, x2 = 0.7453	866.4
323.15 K, x2 = 0.8089	861.6
323.15 K, x2 = 0.8797	856.16
323.15 K, x2 = 0.9374	851.62
323.15 K, x2 = 0.9777	848.38
333.15 K, x2 = 0	910.75
333.15 K, x2 = 0.0695	905.54
333.15 K, x2 = 0.1354	900.67
333.15 K, x2 = 0.2026	895.73
333.15 K, x2 = 0.2701	890.79
333.15 K, x2 = 0.3321	886.27
333.15 K, x2 = 0.4042	881.01
333.15 K, x2 = 0.475	875.82
333.15 K, x2 = 0.5487	870.41
333.15 K, x2 = 0.6014	866.51
333.15 K, x2 = 0.6758	860.97
333.15 K, x2 = 0.7371	856.36
333.15 K, x2 = 0.8142	850.48
333.15 K, x2 = 0.8809	845.28
333.15 K, x2 = 0.9398	840.58
333.15 K, x2 = 0.9785	837.43
343.15 K, x2 = 0	900.73
343.15 K, x2 = 0.0577	896.35
343.15 K, x2 = 0.1155	892
343.15 K, x2 = 0.1728	887.74
343.15 K, x2 = 0.2388	882.84
343.15 K, x2 = 0.299	878.39
343.15 K, x2 = 0.3652	873.49
343.15 K, x2 = 0.4202	869.41
343.15 K, x2 = 0.504	863.2
343.15 K, x2 = 0.5606	858.98
343.15 K, x2 = 0.6275	853.95
343.15 K, x2 = 0.6963	848.75
343.15 K, x2 = 0.7585	844
343.15 K, x2 = 0.8187	839.33
343.15 K, x2 = 0.8814	834.39
343.15 K, x2 = 0.9584	828.16
